Assays:
Format in all cases: in vivo
[1] = tested on: galium (catchweed bedstraw, Galium aparine); assay: Test A postemergence application, visual injury rating; details: approx. 10 d, 0 = no effect, 100 = complete control
Excerpt: (§1) Seeds of plant species selected from barnyardgrass (Echinochloa crus-galli), kochia (Kochia scoparia), ragweed (common ragweed, Ambrosia elation), ryegrass, Italian (Italian ryegrass, Lolium multiflorum), foxtail, giant (giant foxtail, Setaria faberii), and pigweed (Amaranthus retroflexus), were planted into a blend of loam soil and sand and treated preemergence with a directed soil spray using test chemicals formulated in a non-phytotoxic solvent mixture which included a surfactant. At the same time, plants selected from these weed species and also blackgrass (Alopecurus myosuroides), galium (catchweed bedstraw, Galium aparine), wheat (Triticum aestivum), and corn (Zea mays) were planted in pots containing the same blend of loam soil and sand and treated with postemergence applications of test chemicals formulated in the same manner. Plants ranged in height from 2 to 10 cm and were in the one- to two-leaf stage for the postemergence treatment. Treated plants and untreated controls were maintained in a greenhouse for approximately 10 d, after which time all treated plants were compared to untreated controls and visually evaluated for injury. Plant response ratings, summarized in Table A, are based on a 0 to 100 scale where 0 is no effect and 100 is complete control. A dash (-) response means no test result.

corn (Zea mays) = assay: as above; details: approx. 10 d, 0 = no effect, 100 = complete control
Excerpt: as §1

[2] = tested on: pigweed (Amaranthus retroflexus); assay: as above; details: approx. 10 d, 0 = no effect, 100 = complete control
Excerpt: as §1

[3] = tested on: ragweed (common ragweed, Ambrosia elation); assay: as above; details: approx. 10 d, 0 = no effect, 100 = complete control
Excerpt: as §1

kochia (Kochia scoparia) [4] = assay: as above; details: approx. 10 d, 0 = no effect, 100 = complete control
Excerpt: as §1

[5] = tested on: ryegrass, Italian (Italian ryegrass, Lolium multiflorum); assay: as above; details: approx. 10 d, 0 = no effect, 100 = complete control
Excerpt: as §1

[6] = tested on: barnyardgrass (Echinochloa crus-galli); assay: as above; details: approx. 10 d, 0 = no effect, 100 = complete control
Excerpt: as §1

[7] = tested on: blackgrass (Alopecurus myosuroides); assay: as above; details: approx. 10 d, 0 = no effect, 100 = complete control
Excerpt: as §1

[8] = tested on: wheat (Triticum aestivum); assay: as above; details: approx. 10 d, 0 = no effect, 100 = complete control
Excerpt: as §1

[9] = tested on: foxtail, giant (giant foxtail, Setaria faberii); assay: as above; details: approx. 10 d, 0 = no effect, 100 = complete control
Excerpt: as §1

[10] = tested on: pigweed (Amaranthus retroflexus); assay: Test A preemergence, directed soil spray, visual injury rating; details: approx. 10 d, 0 = no effect, 100 = complete control
Excerpt: as §1

[11] = tested on: ragweed (common ragweed, Ambrosia elation); assay: as above; details: approx. 10 d, 0 = no effect, 100 = complete control
Excerpt: as §1

kochia (Kochia scoparia) [12] = assay: as above; details: approx. 10 d, 0 = no effect, 100 = complete control
Excerpt: as §1

[13] = tested on: ryegrass, Italian (Italian ryegrass, Lolium multiflorum); assay: as above; details: approx. 10 d, 0 = no effect, 100 = complete control
Excerpt: as §1

[14] = tested on: barnyardgrass (Echinochloa crus-galli); assay: as above; details: approx. 10 d, 0 = no effect, 100 = complete control
Excerpt: as §1

[15] = tested on: foxtail, giant (giant foxtail, Setaria faberii); assay: as above; details: approx. 10 d, 0 = no effect, 100 = complete control
Excerpt: as §1

[16] = tested on: sedge, umbrella (small-flower umbrella sedge, Cyperus difformis); assay: Test B flooded paddy test, visual plant response rating; details: applied to paddy water at 2-leaf stage, rated after 13 to 15 days, scale 0 to 100, 0 is no effect, 100 is complete control
Excerpt: (§2) At time of treatment, test pots were flooded to 3 cm above the soil surface, treated by application of test compounds directly to the paddy water, and then maintained at that water depth for the duration of the test. Treated plants and controls were maintained in a greenhouse for 13 to 15 days, after which time all species were compared to controls and visually evaluated. Plant response ratings, summarized in Table B, are based on a scale of 0 to 100 where 0 is no effect and 100 is complete control. A dash (-) response means no test result.

[17] = tested on: barnyardgrass (Echinochloa crus-galli); assay: as above; details: applied to paddy water at 2-leaf stage, rated after 13 to 15 days, scale 0 to 100, 0 is no effect, 100 is complete control
Excerpt: as §2

rice (Oryza sativa) = assay: as above; details: applied to paddy water at 2-leaf stage, rated after 13 to 15 days, scale 0 to 100, 0 is no effect, 100 is complete control
Excerpt: as §2

[18] = tested on: ducksalad (Heteranthera limosa); assay: as above; details: applied to paddy water at 2-leaf stage, rated after 13 to 15 days, scale 0 to 100, 0 is no effect, 100 is complete control
Excerpt: as §2

Row | SMILES | Galium plant response rating (0 to 100 scale) ([1]; 125 g ai/ha) | Galium plant response rating (0 to 100 scale) ([1]; 500 g ai/ha) | Corn plant response rating (0 to 100 scale) (corn (Zea mays); 125 g ai/ha) | Corn plant response rating (0 to 100 scale) (corn (Zea mays); 500 g ai/ha) | Pigweed plant response rating (0 to 100 scale) ([2]; 125 g ai/ha) | Pigweed plant response rating (0 to 100 scale) ([2]; 500 g ai/ha) | Ragweed plant response rating (0 to 100 scale) ([3]; 125 g ai/ha) | Ragweed plant response rating (0 to 100 scale) ([3]; 500 g ai/ha) | Kochia plant response rating (0 to 100 scale) (kochia (Kochia scoparia) [4]; 125 g ai/ha) | Kochia plant response rating (0 to 100 scale) (kochia (Kochia scoparia) [4]; 500 g ai/ha) | Ryegrass, Italian plant response rating (0 to 100 scale) ([5]; 125 g ai/ha) | Ryegrass, Italian plant response rating (0 to 100 scale) ([5]; 500 g ai/ha) | Barnyardgrass plant response rating (0 to 100 scale) ([6]; 125 g ai/ha) | Barnyardgrass plant response rating (0 to 100 scale) ([6]; 500 g ai/ha) | Blackgrass plant response rating (0 to 100 scale) ([7]; 125 g ai/ha) | Blackgrass plant response rating (0 to 100 scale) ([7]; 500 g ai/ha) | Wheat plant response rating (0 to 100 scale) ([8]; 125 g ai/ha) | Wheat plant response rating (0 to 100 scale) ([8]; 500 g ai/ha) | Foxtail, Giant plant response rating (0 to 100 scale) ([9]; 125 g ai/ha) | Foxtail, Giant plant response rating (0 to 100 scale) ([9]; 500 g ai/ha) | further results
1 | O=C(Nc1ccccc1F)C1C2=NCCCN2CC1c1cccc(C(F)(F)F)c1 (centres unmarked) [Compound 1] | 0 | 0 | 0 | 20 | 0 | 0 | 0 | 0 | 0 | 0 | 0 | 0 | 0 | 60 | 0 | 0 | 0 | 0 | 0 | 40 | Pigweed plant response rating (0 to 100 scale) ([10]; 125 g ai/ha): 0; Pigweed plant response rating (0 to 100 scale) ([10]; 500 g ai/ha): 0; Ragweed plant response rating (0 to 100 scale) ([11]; 125 g ai/ha): 0; Ragweed plant response rating (0 to 100 scale) ([11]; 500 g ai/ha): 0; Kochia plant response rating (0 to 100 scale) (kochia (Kochia scoparia) [12]; 125 g ai/ha): 0; Kochia plant response rating (0 to 100 scale) (kochia (Kochia scoparia) [12]; 500 g ai/ha): 0; Ryegrass, Italian plant response rating (0 to 100 scale) ([13]; 125 g ai/ha): 0; Ryegrass, Italian plant response rating (0 to 100 scale) ([13]; 500 g ai/ha): 0; Barnyardgrass plant response rating (0 to 100 scale) ([14]; 125 g ai/ha): 0; Barnyardgrass plant response rating (0 to 100 scale) ([14]; 500 g ai/ha): 70; Foxtail, Giant plant response rating (0 to 100 scale) ([15]; 125 g ai/ha): 0; Foxtail, Giant plant response rating (0 to 100 scale) ([15]; 500 g ai/ha): 60; Plant response rating, Flood, Sedge, Umbrella ([16]; 250 g ai/ha): 50; Plant response rating, Flood, Barnyardgrass ([17]; 250 g ai/ha): 0; Plant response rating, Flood, Rice (rice (Oryza sativa); 250 g ai/ha): 0; Plant response rating, Flood, Ducksalad ([18]; 250 g ai/ha): 70
2 | O=C(Nc1ccccc1F)C1c2nncn2CC1c1cccc(C(F)(F)F)c1 (centres unmarked) [Compound 2, N-(2-fluorophenyl)-6,7-dihydro-6-[3-(trifluoromethyl)phenyl]-5H-pyrrolo[2,1-c]-1,2,4-triazole-7-carboxamide] | 50 | 50 | 20 | 40 | 0 | 10 | 0 | 10 | 0 | 30 | 0 | 50 | 60 | 80 | 40 | 70 | 0 | 50 | 50 | 90 | Pigweed plant response rating (0 to 100 scale) ([10]; 125 g ai/ha): 0; Pigweed plant response rating (0 to 100 scale) ([10]; 500 g ai/ha): 0; Ragweed plant response rating (0 to 100 scale) ([11]; 125 g ai/ha): 0; Ragweed plant response rating (0 to 100 scale) ([11]; 500 g ai/ha): 0; Kochia plant response rating (0 to 100 scale) (kochia (Kochia scoparia) [12]; 125 g ai/ha): 0; Kochia plant response rating (0 to 100 scale) (kochia (Kochia scoparia) [12]; 500 g ai/ha): 0; Ryegrass, Italian plant response rating (0 to 100 scale) ([13]; 125 g ai/ha): 0; Ryegrass, Italian plant response rating (0 to 100 scale) ([13]; 500 g ai/ha): 0; Barnyardgrass plant response rating (0 to 100 scale) ([14]; 125 g ai/ha): 60; Barnyardgrass plant response rating (0 to 100 scale) ([14]; 500 g ai/ha): 90; Foxtail, Giant plant response rating (0 to 100 scale) ([15]; 125 g ai/ha): 90; Foxtail, Giant plant response rating (0 to 100 scale) ([15]; 500 g ai/ha): 90; Plant response rating, Flood, Sedge, Umbrella ([16]; 500 g ai/ha): 0; Plant response rating, Flood, Barnyardgrass ([17]; 500 g ai/ha): 0; Plant response rating, Flood, Rice (rice (Oryza sativa); 500 g ai/ha): 0; Plant response rating, Flood, Ducksalad ([18]; 500 g ai/ha): 0
3 | O=C(Nc1ccccc1F)C1C2=NCC(=O)N2CC1c1cccc(C(F)(F)F)c1 (centres unmarked) [Compound 3, N-(2-fluorophenyl)-2,3,6,7-tetrahydro-3-oxo-6-[3-(trifluoromethyl)phenyl]-5H-pyrrolo[1,2-a]imidazole-7-carboxamide] | 0 | 0 | 0 | 0 | 0 | 0 | 0 | 0 | 0 | 0 | 0 | 10 | 0 | 30 | 0 | 0 | 0 | 0 | 20 | 50 | Pigweed plant response rating (0 to 100 scale) ([10]; 125 g ai/ha): 0; Pigweed plant response rating (0 to 100 scale) ([10]; 500 g ai/ha): 0; Ragweed plant response rating (0 to 100 scale) ([11]; 125 g ai/ha): 0; Ragweed plant response rating (0 to 100 scale) ([11]; 500 g ai/ha): 0; Kochia plant response rating (0 to 100 scale) (kochia (Kochia scoparia) [12]; 125 g ai/ha): 0; Kochia plant response rating (0 to 100 scale) (kochia (Kochia scoparia) [12]; 500 g ai/ha): 0; Ryegrass, Italian plant response rating (0 to 100 scale) ([13]; 125 g ai/ha): 0; Ryegrass, Italian plant response rating (0 to 100 scale) ([13]; 500 g ai/ha): 0; Barnyardgrass plant response rating (0 to 100 scale) ([14]; 125 g ai/ha): 0; Barnyardgrass plant response rating (0 to 100 scale) ([14]; 500 g ai/ha): 60; Foxtail, Giant plant response rating (0 to 100 scale) ([15]; 125 g ai/ha): 0; Foxtail, Giant plant response rating (0 to 100 scale) ([15]; 500 g ai/ha): 80
4 | O=C(Nc1ccccc1F)C1c2nccn2CC1c1cccc(C(F)(F)F)c1 (centres unmarked) [Compound 4] | 0 | 0 | 0 | 0 | 0 | 0 | 0 | 0 | 0 | 0 | 0 | 0 | 20 | 60 | 20 | 40 | 0 | 20 | 20 | 70 | Pigweed plant response rating (0 to 100 scale) ([10]; 125 g ai/ha): 0; Pigweed plant response rating (0 to 100 scale) ([10]; 500 g ai/ha): 0; Ragweed plant response rating (0 to 100 scale) ([11]; 125 g ai/ha): 0; Ragweed plant response rating (0 to 100 scale) ([11]; 500 g ai/ha): 0; Kochia plant response rating (0 to 100 scale) (kochia (Kochia scoparia) [12]; 125 g ai/ha): 0; Kochia plant response rating (0 to 100 scale) (kochia (Kochia scoparia) [12]; 500 g ai/ha): 0; Ryegrass, Italian plant response rating (0 to 100 scale) ([13]; 125 g ai/ha): 0; Ryegrass, Italian plant response rating (0 to 100 scale) ([13]; 500 g ai/ha): 0; Barnyardgrass plant response rating (0 to 100 scale) ([14]; 125 g ai/ha): 20; Barnyardgrass plant response rating (0 to 100 scale) ([14]; 500 g ai/ha): 90; Foxtail, Giant plant response rating (0 to 100 scale) ([15]; 125 g ai/ha): 60; Foxtail, Giant plant response rating (0 to 100 scale) ([15]; 500 g ai/ha): 90; Plant response rating, Flood, Sedge, Umbrella ([16]; 500 g ai/ha): 0; Plant response rating, Flood, Barnyardgrass ([17]; 500 g ai/ha): 0; Plant response rating, Flood, Rice (rice (Oryza sativa); 500 g ai/ha): 0; Plant response rating, Flood, Ducksalad ([18]; 500 g ai/ha): 0
